# Assay results reported in patent US8394825B2, “Compound” (Sterix Limited, priority 2007, dated 2013).
# Key:
# [1] = target: T1, E1-STS (Homo sapiens, UniProt P08842); details: cited from earlier work
# T1 sequence (P08842 22-583): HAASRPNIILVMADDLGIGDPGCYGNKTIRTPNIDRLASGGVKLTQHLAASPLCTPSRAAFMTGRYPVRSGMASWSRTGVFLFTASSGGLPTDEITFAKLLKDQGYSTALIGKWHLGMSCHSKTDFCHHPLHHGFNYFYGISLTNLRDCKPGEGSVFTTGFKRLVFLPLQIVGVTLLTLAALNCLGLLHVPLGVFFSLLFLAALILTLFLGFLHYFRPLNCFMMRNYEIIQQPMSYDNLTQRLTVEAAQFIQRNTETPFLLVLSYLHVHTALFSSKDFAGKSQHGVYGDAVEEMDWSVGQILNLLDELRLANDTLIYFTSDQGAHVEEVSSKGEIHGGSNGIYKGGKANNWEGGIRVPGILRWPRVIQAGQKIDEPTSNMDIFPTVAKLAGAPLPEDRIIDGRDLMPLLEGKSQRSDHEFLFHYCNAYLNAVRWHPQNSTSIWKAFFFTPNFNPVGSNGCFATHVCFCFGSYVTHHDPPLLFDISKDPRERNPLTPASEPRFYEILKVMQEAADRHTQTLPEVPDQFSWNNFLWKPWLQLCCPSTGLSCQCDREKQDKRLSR
# [2] = test system: uterotrophic activity; details: cited from earlier work; for oestrogenicity: rat, in vivo
# [3] = cited from earlier work
# [4] = target: T1, E1-STS; set-up: endogenous in cells; host or cells: MCF-7 cells (intact); details: intact MCF-7 cells, 0.1 nM; cited from earlier work
# [5] = test system: DU145 cells; assay: Antiproliferative assay in DU145 cells, WST-1 cell proliferation assay, 96 hours (GI50); assay type: cell-based; details: Homo sapiens, DU-145, 96 hours post-treatment
# Procedure, shortened: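 DU145 cells seeded at 5000 cells/well, treated with […] compound or vehicle for 96 h. Viability read by WST-1, expressed as percent of mean control, GI50 derived; triplicate experiments.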
GI50 ([5]; triplicate) [µM],melting point,GI50 ([5]; 50% growth inhibition) [µM],Compound,other results
,,,COc1cc2c(cc1OS(N)(=O)=O)CC[C@@H]1[C@@H]2CC[C@]2(C)C(=O)CC[C@@H]12 [2-methoxyoestrone-3-O-sulphamate],potency as steroid sulphatase inhibitor relative to EMATE [1]: equipotent with EMATE; oestrogenicity [2]: devoid of oestrogenicity
,,,"C[C@]12CC[C@@H]3c4ccc(OS(=O)(=O)O)cc4CC[C@H]3[C@@H]1CCC2=O [E1S, oestrone sulphate]",half-life in blood [3]: 10 to 12 h
,,,"CC12CCC3c4ccc(OS(N)(=O)=O)cc4CCC3C1CCC2=O (stereo not shown) [EMATE, oestrone-3-sulphamate]","mode of E1-STS enzyme inhibition (inactivation) [1]: time- and concentration-dependent manner; oestrogenicity [2]: potent oestrogenic properties; oral uterotrophic activity relative to estradiol ([2]; rats, oral): 100 times; inhibition of E1-STS activity [4]: more than 99%"
> 100,202 to 203 °C,,"COc1cc2c(cc1OCc1ccccc1)CCN(S(=O)(=O)c1ccccc1OC)C2=O [compound 197, 6-Benzyloxy-7-methoxy-2-(2-methoxy-benzenesulfonyl)-3,4-dihydro-2H-isoquinolin-1-one]",
> 100,155 to 158 °C,,"COc1cc2c(cc1OCc1ccccc1)CCN(S(=O)(=O)c1cccc(Cl)c1)C2=O [compound 199, 6-Benzyloxy-2-(3-chloro-benzenesulfonyl)-7-methoxy-3,4-dihydro-2H-isoquinolin-1-one]",
> 100,222 to 224 °C,,"COc1cc2c(cc1O)CCN(S(=O)(=O)c1ccccc1OC)C2=O [compound 200, 6-Hydroxy-7-methoxy-2-(2-methoxy-benzenesulfonyl)-3,4-dihydro-2H-isoquinolin-1-one]",
> 100,195 to 197 °C,,"COc1cccc(S(=O)(=O)N2CCc3cc(O)c(OC)cc3C2=O)c1 [compound 201, 6-Hydroxy-7-methoxy-2-(3-methoxy-benzenesulfonyl)-3,4-dihydro-2H-isoquinolin-1-one]",
> 100,202 to 204 °C,,"COc1ccc(S(=O)(=O)N2CCc3cc(O)c(OC)cc3C2=O)cc1 [compound 202, 6-Hydroxy-7-methoxy-2-(4-methoxy-benzenesulfonyl)-3,4-dihydro-2H-isoquinolin-1-one]",
,178 to 181 °C,> 100,"COc1cc2c(cc1O)CCN(S(=O)(=O)c1cccc(Cl)c1)C2=O [compound 203, 2-(3-Chloro-benzenesulfonyl)-6-hydroxy-7-methoxy-3,4-dihydro-2H-isoquinolin-1-one]",
,100 to 105 °C,< 10,"COc1cccc(CN2Cc3cc(OC)c(O)cc3CC2C)c1 (stereo not shown) [compound 217, 2-(3-Methoxybenzyl)-1,2,3,4-tetrahydro-7-methoxy-3-methylisoquinolin-6-ol]",
,155 to 158 °C,10 to 50,"COc1cc(CN2Cc3cc(OC)c(O)cc3CC2C)cc(OC)c1 (stereo not shown) [compound 218, 2-(3,5-Dimethoxybenzyl)-1,2,3,4-tetrahydro-7-methoxy-3-methylisoquinolin-6-ol]",
,159 to 162 °C,> 100,"COc1cc2c(cc1O)CC(C)(C)N(C(=O)c1cc(OC)c(OC)c(OC)c1)C2 [compound 234, (6-Hydroxy-7-methoxy-3,3-dimethyl-3,4-dihydro-1H-isoquinolin-2-yl)-(3,4,5-trimethoxy-phenyl)-methanone]",
,172 to 176 °C,> 100,"COc1cc2c(cc1OS(N)(=O)=O)CC(C)(C)N(C(=O)c1cc(OC)c(OC)c(OC)c1)C2 [compound 236, Sulfamic acid 7-methoxy-3,3-dimethyl-2-(3,4,5-trimethoxy-benzoyl)-1,2,3,4-tetrahydro-isoquinolin-6-yl ester]",
,> 180 °C (dec.),> 100,"COc1cc(OC)cc(C(=O)N2Cc3cc(OC)c(OS(N)(=O)=O)cc3CC2(C)C)c1 [compound 237, Sulfamic acid 2-(3,5-dimethoxy-benzoyl)-7-methoxy-3,3-dimethyl-1,2,3,4-tetrahydro-isoquinolin-6-yl ester]",
,,,oestrone-3-N-sulphamate,mode of E1-STS enzyme inhibition (inactivation) [1]: weaker non-time-dependent inactivators
,,,oestrone-3-S-sulphamate,mode of E1-STS enzyme inhibition (inactivation) [1]: weaker non-time-dependent inactivators
